# Earlier results, collected in US8784850B2, “Highly biocompatible dual thermogelling chitosan/glucosamine salt composition” (Oligo Médic Inc., priority 2010, dated 2014).
# Experiments:
# rats [1] = details: ingestion of 300 to 2149 mg/kg of body weight
# rabbits [2] = details: ingestion of 300 to 2149 mg/kg of body weight
# dogs = details: ingestion of 300 to 2149 mg/kg of body weight
# [3] = system: patients with osteoarthritis pain; details: oral administration, more than 3000 patients
# [4] = system: outpatients with gonarthrosis
# [5] = system: human blood glucose metabolism; details: human studies
# rats [6] = details: rat, in vivo, po
# mice = details: mouse, in vivo, po
# rabbits [7] = details: rabbit, in vivo, po
# [8] = intra-articular, after treatment
# [9] = intra-articular, versus placebo
smiles,measurement,setting,value
N[C@H]1C(O)O[C@H](CO)[C@@H](O)[C@@H]1O (stereo partly drawn) [glucosamine],blood glucose levels,rats [1],no effect on blood glucose levels
same,blood glucose levels,rabbits [2],no effect on blood glucose levels
same,blood glucose levels,dogs,no effect on blood glucose levels
same,"adverse effects on blood, urine or fecal parameters",[3],no adverse effects
same,effectiveness in treating osteoarthritis pain,[3],moderately to highly effective
same,local or general intolerance symptoms,[4]; during and after treatment,no local or general intolerance symptoms
same,angle of joint flexion,[4]; [8],substantially increased
same,knee swelling,[4]; [8],did not decrease significantly
same,active mobility,[4]; [9],a more favourable trend after glucosamine administration
same,pain-free patients,[4]; [9],significantly more pain-free patients
same,pain,"[4]; one intra-articular injection per week for five weeks, versus placebo",reduced pain to a significantly greater extent than did placebo
same,"plasma levels of glucose or insulin, insulin sensitivity or glucose oxidation",[5],did not affect
same,LD50,rats [6],exceed 5000 mg/kg
same,LD50,mice,> 8000 mg/kg
same,LD50,rabbits [7],> 8000 mg/kg
